Source: PubChem BioAssay AID2060492 (Molecular Pharmacology Branch, DTP, NCI, 2025)

Tested on: 695427-040-R-J1-PDC complex spheroids, viability percent T/C
Assay: Anticancer human tumor 695427-040-R-J1-PDC patient-derived colon adenocarcinoma cell line growth inhibition [GQUAD]
Settings: for IC50: curve of first compound; for viability, T/C: stronger effect = lower value
In short: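 Tumor cells were grown as complex spheroids with HUVEC endothelial cells and mesenchymal stem cells as stroma. G-quadruplex stabilizers were combined with targeted agents over half-log dilutions from near the clinical Cmax, or from 10 microM.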

[1] = second compound 0.0316 µM, first compound 0.0316 µM
[2] = second compound 0.0316 µM, first compound 0.316 µM
[3] = second compound 0.1 µM, first compound 0.0316 µM
[4] = second compound 0.1 µM, first compound 0.316 µM
[5] = second compound 0.316 µM, first compound 0.0316 µM
[6] = second compound 0.316 µM, first compound 0.316 µM
[7] = second compound 1 µM, first compound 0.0316 µM
[8] = second compound 1 µM, first compound 0.316 µM
[9] = second compound 3.16 µM, first compound 0.0316 µM
[10] = second compound 3.16 µM, first compound 0.316 µM
[11] = second compound 10 µM, first compound 0.0316 µM
[12] = second compound 10 µM, first compound 0.316 µM
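Also: spheroids exposed to compounds for seven days before readout.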

## CC(C)n1c(=O)n(C)c2cnc3cc(F)c(-c4ccc(OCCCN5CCCCC5)nc4)cc3c21 + CN(C)c1ccc(Nc2c3ccc(NC(=O)CCN4CCCC4)cc3nc3cc(NC(=O)CCN4CCCC4)ccc23)cc1
Second compound 0.0316 µM
  IC50: > 10 µM
Second compound 0.1 µM
  IC50: > 10 µM
Second compound 0.316 µM
  IC50: > 10 µM
Second compound 1 µM
  IC50: > 10 µM
Second compound 3.16 µM
  IC50: > 10 µM
Second compound 10 µM
  IC50: > 10 µM
[1]
  viability, T/C: 113%
Second compound 0.0316 µM, first compound 0.1 µM
  viability, T/C: 96.1%
[2]
  viability, T/C: 111%
Second compound 0.0316 µM, first compound 1 µM
  viability, T/C: 101%
Second compound 0.0316 µM, first compound 3.16 µM
  viability, T/C: 104%
Second compound 0.0316 µM, first compound 10 µM
  viability, T/C: 66%
[3]
  viability, T/C: 107%
Second compound 0.1 µM, first compound 0.1 µM
  viability, T/C: 97.3%
[4]
  viability, T/C: 106%
Second compound 0.1 µM, first compound 1 µM
  viability, T/C: 102%
Second compound 0.1 µM, first compound 3.16 µM
  viability, T/C: 110%
Second compound 0.1 µM, first compound 10 µM
  viability, T/C: 62.5%
[5]
  viability, T/C: 108%
Second compound 0.316 µM, first compound 0.1 µM
  viability, T/C: 98.5%
[6]
  viability, T/C: 102%
Second compound 0.316 µM, first compound 1 µM
  viability, T/C: 106%
Second compound 0.316 µM, first compound 3.16 µM
  viability, T/C: 100%
Second compound 0.316 µM, first compound 10 µM
  viability, T/C: 67.4%
[7]
  viability, T/C: 101%
Second compound 1 µM, first compound 0.1 µM
  viability, T/C: 102%
[8]
  viability, T/C: 110%
Second compound 1 µM, first compound 1 µM
  viability, T/C: 105%
Second compound 1 µM, first compound 3.16 µM
  viability, T/C: 100%
Second compound 1 µM, first compound 10 µM
  viability, T/C: 62.9%
[9]
  viability, T/C: 86.4%
Second compound 3.16 µM, first compound 0.1 µM
  viability, T/C: 101%
[10]
  viability, T/C: 94.4%
Second compound 3.16 µM, first compound 1 µM
  viability, T/C: 98.8%
Second compound 3.16 µM, first compound 3.16 µM
  viability, T/C: 95.5%
Second compound 3.16 µM, first compound 10 µM
  viability, T/C: 68.1%
[11]
  viability, T/C: 89.4%
Second compound 10 µM, first compound 0.1 µM
  viability, T/C: 92.2%
[12]
  viability, T/C: 93.3%
Second compound 10 µM, first compound 1 µM
  viability, T/C: 89.3%
Second compound 10 µM, first compound 3.16 µM
  viability, T/C: 93.7%
Second compound 10 µM, first compound 10 µM
  viability, T/C: 59.4%

## CC[C@@]1(O)C(=O)OCc2c1cc1n(c2=O)Cc2cc3c(CN(C)C)c(O)ccc3nc2-1 + Cc1[nH]c2ccc(F)cc2c1-c1nc2c3cccnc3c3ncccc3c2[nH]1
Second compound 0.0316 µM
  IC50: > 0.316 µM
Second compound 0.1 µM
  IC50: > 0.316 µM
Second compound 0.316 µM
  IC50: > 0.316 µM
Second compound 1 µM
  IC50: > 0.316 µM
Second compound 3.16 µM
  IC50: > 0.316 µM
Second compound 10 µM
  IC50: > 0.316 µM
Second compound 0.0316 µM, first compound 0.000999 µM
  viability, T/C: 108%
Second compound 0.0316 µM, first compound 0.00316 µM
  viability, T/C: 105%
Second compound 0.0316 µM, first compound 0.00999 µM
  viability, T/C: 109%
[1]
  viability, T/C: 71.5%
Second compound 0.0316 µM, first compound 0.0999 µM
  viability, T/C: 98.3%
[2]
  viability, T/C: 82.1%
Second compound 0.1 µM, first compound 0.000999 µM
  viability, T/C: 94.5%
Second compound 0.1 µM, first compound 0.00316 µM
  viability, T/C: 89.4%
Second compound 0.1 µM, first compound 0.00999 µM
  viability, T/C: 94.1%
[3]
  viability, T/C: 78.7%
Second compound 0.1 µM, first compound 0.0999 µM
  viability, T/C: 94.2%
[4]
  viability, T/C: 89.8%
Second compound 0.316 µM, first compound 0.000999 µM
  viability, T/C: 97.3%
Second compound 0.316 µM, first compound 0.00316 µM
  viability, T/C: 90.4%
Second compound 0.316 µM, first compound 0.00999 µM
  viability, T/C: 92.9%
[5]
  viability, T/C: 88.2%
Second compound 0.316 µM, first compound 0.0999 µM
  viability, T/C: 101%
[6]
  viability, T/C: 78.9%
Second compound 1 µM, first compound 0.000999 µM
  viability, T/C: 85.2%
Second compound 1 µM, first compound 0.00316 µM
  viability, T/C: 97.2%
Second compound 1 µM, first compound 0.00999 µM
  viability, T/C: 92.6%
[7]
  viability, T/C: 95%
Second compound 1 µM, first compound 0.0999 µM
  viability, T/C: 91.3%
[8]
  viability, T/C: 73.2%
Second compound 3.16 µM, first compound 0.000999 µM
  viability, T/C: 62.5%
Second compound 3.16 µM, first compound 0.00316 µM
  viability, T/C: 82.9%
Second compound 3.16 µM, first compound 0.00999 µM
  viability, T/C: 79.3%
[9]
  viability, T/C: 72.4%
Second compound 3.16 µM, first compound 0.0999 µM
  viability, T/C: 84.4%
[10]
  viability, T/C: 77.3%
Second compound 10 µM, first compound 0.000999 µM
  viability, T/C: 58.9%
Second compound 10 µM, first compound 0.00316 µM
  viability, T/C: 78.8%
Second compound 10 µM, first compound 0.00999 µM
  viability, T/C: 83.8%
[11]
  viability, T/C: 78.2%
Second compound 10 µM, first compound 0.0999 µM
  viability, T/C: 89.5%
[12]
  viability, T/C: 73.1%
